The structures appear in SMILES notation. Where a name gives a salt, the structure may show the parent alone. Marks after values point to notes of the source that are not given here.

The test system of one data set is motor neurons of the facial nucleus. In words: Survival of the motor neurons after sectioning the facial nerve in rats aged 4 days. The format is in vivo, rat. The following applies: via oral route, at 10 mg/kg; treated for 7 days; facial nerve lesion in 4 day old rats. The protocol:
Test of Survival of the Motor Neurons after Sectioning the Facial Nerve in Rats Aged 4 Days
After lesion of the facial nerve in immature rats, the motor neurons of the facial nucleus underwent neuronal death by apoptosis. Neural survival was evaluated using histological methods and neuronal counting.
4 day old immature rats were anesthetized with pentobarbital (3 mg/kg by the i.p. route). The right facial nerve was exposed and sectioned, at its outlet from the stylomastoid foramen. After waking up, the young rats were returned to their mothers and treated for 7 days with one or two daily administrations, via oral or intraperitoneal route, at doses ranging from 1 to 10 mg/kg.
7 days after the lesion, the animals were decapitated and the brains frozen in isopentane at −40° C. The entire facial […] was cut with a cryostat into 10 μm sections. The motor neurons were colored with cresyl violet and counted using the Histo™ software (Biocom™).
As to `CN(C)C(=O)Cc1nc(-c2ccccc2)nc2c1c1ccc(Cl)cc1n2C` [Compound 19, 2-(7-chloro-9-methyl-2-phenyl-9H-pyrimido[4,5-b]indol-4-yl)-N,N-dimethylacetamide], the “% increase of neuronal survival” value was “+21* %”.
As to `CN(C)C(=O)c1nc(-c2ccccc2)nc2c1c1ccc(Cl)cc1n2C` [Compound 2, 7-chloro-N,N,9-trimethyl-2-phenyl-9H-pyrimido[4,5-b]indole-4-carboxamide], the “% increase of neuronal survival” value is given as “+25* %”.

Tested on in another data set: not given
Assay: not given
Settings: not given
For `Cc1cc(-c2nc(C(=O)N(C)C)c3c4ccc(Cl)cc4n(C)c3n2)cnc1C.Cl`, the melting point was in the range of 285 to 289 °C.
The same measure, in the same setting: in the case of `CN(C)C(=O)c1nc(C2CCOCC2)nc2c1c1ccc(Cl)cc1n2C` [Compound 35, 7-chloro-N,N,9-trimethyl-2-(tetrahydro-2H-pyran-4-yl)-9H-pyrimido[4,5-b]indole-4-carboxamide] it was 174.5 to 175.5 °C; in that of `CN(C)C(=O)c1nc(-c2ccccc2)nc2c1c1ccccc1n2C` [Compound 1, N,N,9-trimethyl-2-phenyl-9H-pyrimido[4,5-b]indole-4-carboxamide], 193 to 195 °C; in that of `CCc1ccc(-c2nc(C(=O)N(C)C)c3c4ccc(Cl)cc4n(C)c3n2)cn1` [Compound 40, 7-chloro-2-(6-ethylpyridin-3-yl)-N,N,9-trimethyl-9H-pyrimido[4,5-b]indole-4-carboxamide], 232 to 235 °C.
Same read-out and setting: in the case of `Cn1c2cc(Cl)ccc2c2c(C(=O)N3CCCC3)nc(-c3ccncc3)nc21` [Compound 14, 7-chloro-9-methyl-2-pyridin-4-yl-4-(pyrrolidin-1-ylcarbonyl)-9H-pyrimido[4,5-b]indole] it was 256 to 258 °C; in that of `Cc1nc(C(=O)N(C)C)c2c3ccc(Cl)cc3n(C)c2n1` [Compound 33, 7-chloro-N,N,2,9-tetramethyl-9H-pyrimido[4,5-b]indole-4-carboxamide], 193 to 195 °C.
On the same count and under the same terms, in the case of `CN(C)Cc1ccc(-c2nc(C(=O)N(C)C)c3c4ccc(Cl)cc4n(C)c3n2)cn1` (as salt: HCl) [Compound 47, 7-chloro-2-{6-[(dimethylamino)methyl]pyridin-3-yl}-N,N,9-trimethyl-9H-pyrimido[4,5-b]indole-4-carboxamide] it was 240 to 242 °C; in that of `CN(C)C(=O)c1nc(-c2ccccc2)nc2[nH]c3ccccc3c12` [Compound 23, N,N-dimethyl-2-phenyl-9H-pyrimido[4,5-b]indole-4-carboxamide], 218 to 219 °C; in that of `CN(C)C(=O)c1nc(C2CC2)nc2c1c1ccc(Cl)cc1n2C` [Compound 32, 7-chloro-2-cyclopropyl-N,N,9-trimethyl-9H-pyrimido[4,5-b]indole-4-carboxamide], 197 to 198 °C.
In the case of `CN(C)C(=O)c1nc(-c2ccc(Cl)nc2)nc2c1c1ccc(Cl)cc1n2C` [Compound 37, 7-chloro-2-(6-chloropyridin-3-yl)-N,N,9-trimethyl-9H-pyrimido[4,5-b]indole-4-carboxamide], the melting point was 275 to 276 °C.
For `COCc1ccc(-c2nc(C(=O)N(C)C)c3c4ccc(Cl)cc4n(C)c3n2)cn1` [Compound 45, 7-chloro-2-[6-(methoxymethyl)pyridin-3-yl]-N,N,9-trimethyl-9H-pyrimido[4,5-b]indole-4-carboxamide], the melting point lay in the range of 239 to 241 °C.
The same measure, in the same setting: the figure for `CN(C)C(=O)c1nc(-c2cnc3c(c2)CCCC3)nc2c1c1ccc(Cl)cc1n2C.Cl` is 289 to 291 °C; for `CN(C)C(=O)Cc1nc(-c2ccncc2)nc2c1c1ccc(Cl)cc1n2C` [Compound 21, 2-(7-chloro-9-methyl-2-pyridin-4-yl-9H-pyrimido[4,5-b]indol-4-yl)-N,N-dimethylacetamide] it is 231 to 232 °C; for `COc1cc(-c2nc(C(=O)N(C)C)c3c4ccc(Cl)cc4n(C)c3n2)ccn1` [Compound 30, 7-chloro-2-(2-methoxypyridin-4-yl)-N,N,9-trimethyl-9H-pyrimido[4,5-b]indole-4-carboxamide] it is 278 to 279 °C.
`CN1CCN(C(=O)c2nc(-c3ccccc3)nc3c2c2ccc(Cl)cc2n3C)CC1` [Compound 11, 7-chloro-9-methyl-4-[(4-methylpiperazin-1-yl)carbonyl]-2-phenyl-9H-pyrimido[4,5-b]indole] had a melting point of 236 to 238 °C.
`CN(C)C(=O)c1nc(-c2ccccc2)nc2c1c1ccc(F)cc1n2C` [Compound 3, 7-fluoro-N,N,9-trimethyl-2-phenyl-9H-pyrimido[4,5-b]indole-4-carboxamide] returned a melting point of 229 to 231 °C.
The same measure, in the same setting: the figure for `CN(C)C(=O)c1nc(-c2cnccn2)nc2c1c1ccc(Cl)cc1n2C` [Compound 18, 7-chloro-N,N,9-trimethyl-2-pyrazin-2-yl-9H-pyrimido[4,5-b]indole-4-carboxamide] is 272 to 273 °C.
Molecule `CC(C)Cn1c2cc(Cl)ccc2c2c(C(=O)N(C)C)nc(-c3ccncc3)nc21` (as salt: HCl) [Compound 31, 7-chloro-9-isobutyl-N,N-dimethyl-2-pyridin-4-yl-9H-pyrimido[4,5-b]indole-4-carboxamide] yielded a melting point of 230 to 236 °C.
Molecule `CN(C)C(=O)c1nc(-c2ccccc2)nc2[nH]c3cc(Cl)ccc3c12` [Compound 5, 7-chloro-N,N-dimethyl-2-phenyl-9H-pyrimido[4,5-b]indole-4-carboxamide] showed a melting point of 232 to 233 °C.
Still for that read-out and setting: the figure for `CN(C)C(=O)c1nc(-c2cccnc2)nc2c1c1ccc(Cl)cc1n2C` [Compound 16, 7-chloro-N,N,9-trimethyl-2-pyridin-3-yl-9H-pyrimido[4,5-b]indole-4-carboxamide] is 283 to 284 °C.
In turn, `CN(C)C(=O)c1nc(-c2ccccc2)nc2c1c1cc(Cl)ccc1n2C` [Compound 4, 6-chloro-N,N,9-trimethyl-2-phenyl-9H-pyrimido[4,5-b]indole-4-carboxamide] had a melting point of 222 to 224 °C.
`COc1cncc(-c2nc(C(=O)N(C)C)c3c4ccc(Cl)cc4n(C)c3n2)c1` [Compound 44, 7-chloro-2-(5-methoxypyridin-3-yl)-N,N,9-trimethyl-9H-pyrimido[4,5-b]indole-4-carboxamide] registered a melting point of 258 to 260 °C.
As to `CN(C)C(=O)c1nc(-c2cncnc2)nc2c1c1ccc(Cl)cc1n2C` [Compound 43, 7-chloro-N,N,9-trimethyl-2-pyrimidin-5-yl-9H-pyrimido[4,5-b]indole-4-carboxamide], the melting point was 322 to 325 °C.
`COc1ccc(-c2nc(C(=O)N(C)C)c3c4ccc(Cl)cc4n(C)c3n2)cn1` [Compound 28, 7-chloro-2-(6-methoxypyridin-3-yl)-N,N,9-trimethyl-9H-pyrimido[4,5-b]indole-4-carboxamide] had a melting point of 267 to 268 °C.
As for `Cc1cc(-c2nc(C(=O)N(C)C)c3c4ccc(Cl)cc4n(C)c3n2)cc(C)n1.Cl`, the melting point was 288 to 292 °C.
Same read-out and setting: the figure for `Cc1cncc(-c2nc(C(=O)N(C)C)c3c4ccc(Cl)cc4n(C)c3n2)c1` [Compound 42, 7-chloro-N,N,9-trimethyl-2-(5-methylpyridin-3-yl)-9H-pyrimido[4,5-b]indole-4-carboxamide] is 313 to 314 °C; for `CCc1cncc(-c2nc(C(=O)N(C)C)c3c4ccc(Cl)cc4n(C)c3n2)c1` [Compound 41, 7-chloro-2-(5-ethylpyridin-3-yl)-N,N,9-trimethyl-9H-pyrimido[4,5-b]indole-4-carboxamide] it is 218 to 219 °C; for `Cc1nc(-c2nc(C(=O)N(C)C)c3c4ccc(Cl)cc4n(C)c3n2)cs1` [Compound 46, 7-chloro-N,N,9-trimethyl-2-(2-methyl-1,3-thiazol-4-yl)-9H-pyrimido[4,5-b]indole-4-carboxamide] it is 256 to 258 °C.
The same measure, in the same setting: the figure for `Cn1c2cc(Cl)ccc2c2c(C(=O)O)nc(-c3ccccc3)nc21` [Compound 26, 7-chloro-9-methyl-2-phenyl-9H-pyrimido[4,5-b]indole-4-carboxylic acid] is 208 to 209 °C; for `CCOc1ccc(-c2nc(C(=O)N(C)C)c3c4ccc(Cl)cc4n(C)c3n2)cn1` [Compound 39, 7-chloro-2-(6-ethoxypyridin-3-yl)-N,N,9-trimethyl-9H-pyrimido[4,5-b]indole-4-carboxamide] it is 237 to 239 °C; for `CCOC(=O)c1nc(-c2ccccc2)nc2c1c1ccc(Cl)cc1n2C` [Compound 24, Ethyl 7-chloro-9-methyl-2-phenyl-9H-pyrimido[4,5-b]indole-4-carboxylate] it is 139 to 140 °C.
Molecule `CC(C)c1nc(C(=O)N(C)C)c2c3ccc(Cl)cc3n(C)c2n1` [Compound 34, 7-chloro-2-isopropyl-N,N,9-trimethyl-9H-pyrimido[4,5-b]indole-4-carboxamide] came in with a melting point of 125 to 126 °C.
Still for that read-out and setting: the figure for `CN(C)C(=O)Cc1nc(-c2cccnc2)nc2c1c1ccc(Cl)cc1n2C` [Compound 22, 2-(7-chloro-9-methyl-2-pyridin-3-yl-9H-pyrimido[4,5-b]indol-4-yl)-N,N-dimethylacetamide] is 248 to 251 °C.

In the next data set the target is T1, peripheral benzodiazepine receptors (p or PBR sites) (Rattus norvegicus, UniProt P16257).
T1 construct: After decapitation, the kidney was removed and the tissue was homogenized; from tissue; host or cells: kidney membrane homogenate of male Sprague Dawley rats
The data set is described as follows: Binding of [3H]Ro5-4864 to peripheral benzodiazepine receptors in rat kidney membranes. The following applies: [3H]Ro5-4864 0.5 nM, 3 h at 0° C., read-out: IC50, concentration which inhibits 50% of the specific binding of [3H]Ro5-4864.
For the molecule `CN(C)C(=O)Cc1nc(-c2ccccc2)nc2c1c1ccc(Cl)cc1n2C` [Compound 19, 2-(7-chloro-9-methyl-2-phenyl-9H-pyrimido[4,5-b]indol-4-yl)-N,N-dimethylacetamide], the IC50 was 1.3 nM.
As to `CN(C)C(=O)c1nc(-c2ccccc2)nc2c1c1ccc(Cl)cc1n2C` [Compound 2, 7-chloro-N,N,9-trimethyl-2-phenyl-9H-pyrimido[4,5-b]indole-4-carboxamide], the IC50 was 2.2 nM.

A word on the melting point: it is the temperature, or range, at which the solid turns liquid.
